Reference: ChEMBL document CHEMBL4311972, “Discovery of a benzothiophene-flavonol halting miltefosine and antimonial drug resistance in Leishmania parasites through the application of medicinal chemistry, screening and genomics” (Eur J Med Chem, 2019)
Several values for one entry are separate records, joined by “and”; a condition that tells them apart may be missing. Equal entries are not always repeated. Activity calls are given as the source filed them. No cut-off for these calls is given here.

How the values were obtained:
Leishmania infantum [1] = assay: Antileishmanial activity against Leishmania infantum amastigotes infected in Syrian hamster assessed as reduction in parasite load at 40 mg/kg/day, po for 10 days formulated with 8% v/v DMSO relative to control; assay type: functional; details: 240 h
Albumin [2] = target: T1, Albumin (Bos taurus, UniProt P02769); assay: Binding affinity to bovine serum albumin by fluorescence based assay; assay type: ADME
T1 sequence (P02769 whole entry): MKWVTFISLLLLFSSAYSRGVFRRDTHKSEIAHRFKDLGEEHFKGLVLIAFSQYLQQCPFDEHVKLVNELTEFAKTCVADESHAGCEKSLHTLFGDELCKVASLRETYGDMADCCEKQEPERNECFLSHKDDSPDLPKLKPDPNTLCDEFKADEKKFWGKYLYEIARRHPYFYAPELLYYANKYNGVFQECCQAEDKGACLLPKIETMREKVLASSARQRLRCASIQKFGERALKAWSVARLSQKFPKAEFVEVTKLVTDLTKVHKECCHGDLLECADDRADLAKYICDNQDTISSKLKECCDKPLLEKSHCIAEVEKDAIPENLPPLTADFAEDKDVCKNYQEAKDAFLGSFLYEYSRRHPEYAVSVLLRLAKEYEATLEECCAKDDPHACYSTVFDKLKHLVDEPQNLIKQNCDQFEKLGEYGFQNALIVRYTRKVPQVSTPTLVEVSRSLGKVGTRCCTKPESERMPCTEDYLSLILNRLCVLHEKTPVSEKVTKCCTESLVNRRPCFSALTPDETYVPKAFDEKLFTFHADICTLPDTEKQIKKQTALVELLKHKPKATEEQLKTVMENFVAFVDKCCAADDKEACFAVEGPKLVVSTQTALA

[3] = Chemical stability of compound in PBS assessed as decrease in absorbance at 60 uM at pH 7 to 8 and 25 degC measured within 20 mins under dark conditions by UV-vis spectrophotometry analysis; assay type: physicochemical; details: read-out: Drug degradation
[4] = Plasma concentration in syrian hamster infected with Leishmania infantum BCN150 promastigote at 40 mg/kg/day, po for 10 days formulated with 50% v/v cyclodextrin; assay type: ADME, organism-based, Mesocricetus auratus
[5] = Plasma concentration in syrian hamster infected with Leishmania infantum BCN150 promastigote at 40 mg/kg/day, po for 10 days formulated with 30% v/v cyclodextrin; assay type: ADME, organism-based, Mesocricetus auratus
Leishmania infantum [6] = assay: Antileishmanial activity against Leishmania infantum amastigotes infected in Syrian hamster assessed as parasite load within liver at 40 mg/kg/day, po for 10 days formulated with 30% v/v cyclodextrin (reference value: 4333333.333 +/- 3444802.849 /g); assay type: functional
[7] = Selectivity index, ratio of CC50 for human THP1 cells to EC50 for luciferase expressing intracellular amastigote stage of Leishmania infantum infected in human THP1 cells; assay type: toxicity, cell-based; details: read-out: Ratio CC50/EC50
[8] = Selectivity index, ratio of CC50 for human THP1 cells to EC50 for Trypanosoma brucei bloodstream form; assay type: toxicity; details: read-out: Ratio CC50/EC50
Leishmania donovani [9] = assay: (§1) Antileishmanial activity against antimony sensitive Leishmania donovani BPK091 promastigotes infected in C57BL/6 mouse bone marrow-derived macrophages assessed as reduction in parasite load at 5 uM treated with compound at 24 hrs post-infection measured after 72 hrs post infection by q-PCR analysis relative to control; assay type: functional
Leishmania donovani [10] = assay: as §1, with “at 10” for “at 5”; assay type: functional
Leishmania donovani [11] = assay: as §1, with “antimony resistant” for “antimony sensitive”, “donovani BPK190” for “donovani BPK091”, “at 10” for “at 5”; assay type: functional
[12] = Toxicity in Syrian hamster infected with Leishmania infantum BCN150 promastigotes assessed as liver weight at 40 mg/kg/day, po for 10 days formulated with 50% v/v cyclodextrin (reference value: 5.892 +/- 0.446 g); assay type: organism-based, Mesocricetus auratus; details: in vivo, 240 h
[13] = Toxicity in Syrian hamster infected with Leishmania infantum BCN150 promastigotes assessed as adverse effects at 20 mg/kg/every 12 hrs, po for 10 days formulated with 8% v/v DMSO measured daily; assay type: organism-based, Mesocricetus auratus; details: in vivo
[14] = Toxicity in Syrian hamster infected with Leishmania infantum BCN150 promastigotes assessed as effect on ALT level at 40 mg/kg/day, po for 10 days formulated with 30 to 50% v/v cyclodextrin measured after the last treatment; assay type: organism-based, Mesocricetus auratus; details: in vivo, 240 h
[15] = Toxicity in Syrian hamster infected with Leishmania infantum BCN150 promastigotes assessed as effect on plasma urea level at 40 mg/kg/day, po for 10 days formulated with 30 to 50% v/v cyclodextrin measured after the last treatment; assay type: organism-based, Mesocricetus auratus; details: in vivo, 240 h
[16] = Cmax in BALB/c mouse at 1 mg/kg, iv measured upto 72 hrs by snapshot method; assay type: ADME, organism-based; set-up: dose 1 mg/kg, route intravenous; details: in vivo
[17] = AUC (total) in BALB/c mouse at 1 mg/kg, iv measured upto 72 hrs by snapshot method; assay type: ADME, organism-based; set-up: dose 1 mg/kg, time < 72 hr, route intravenous; details: in vivo
[18] = Half-life in BALB/c mouse at 1 mg/kg, iv measured upto 72 hrs by snapshot method; assay type: ADME, organism-based; details: in vivo
Leishmania donovani [19] = assay: Antileishmanial activity against Leishmania donovani BPK091 promastigotes transfected with Leishmania donovani BPK190 genomic cosmid DNA assessed as decrease in parasite growth at IC75 concentration incubated for 3 days under selective pressure and selection cycle repeated for 25 passages and measured at 43 to 78 days of selection; assay type: functional, organism-based
hERG = assay: Selectivity ratio of IC50 for human ERG to EC50 for antileishmanial activity against luciferase expressing intracellular amastigote stage of Leishmania infantum infected in human THP1 cells; assay type: toxicity, cell-based
[20] = Toxicity in Syrian hamster infected with Leishmania infantum BCN150 promastigotes assessed as liver weight at 40 mg/kg/day, po for 10 days formulated with 8% v/v DMSO (reference value: 5.874 +/- 0.414 g); assay type: organism-based, Mesocricetus auratus; details: in vivo, 240 h
WI-38 = assay: Cytotoxicity against human WI38 cells incubated for 48 hrs by Celltiter-Glo luminescence assay; assay type: cell-based; details: wi-38, 48 h
[21] = Chemical stability of compound in PBS assessed as decrease in absorbance at 60 uM at pH 7 to 8 measured after exposure to daylight by UV-vis spectrophotometry analysis; assay type: physicochemical; details: buffer, pH 7, 60 µM
Albumin [22] = target: Albumin (Homo sapiens, UniProt P02768); assay: Binding affinity to human serum albumin in phosphate buffer assessed as increase in emission intensity at 530-550 nm at 5 uM measured at pH 8 at albumin concentration of 2 uM by fluorescence emission spectrum analysis; assay type: ADME; details: isolated protein, pH 8, 5 µM
Chain of Albumin (Homo sapiens, UniProt P02768) (P02768 whole entry): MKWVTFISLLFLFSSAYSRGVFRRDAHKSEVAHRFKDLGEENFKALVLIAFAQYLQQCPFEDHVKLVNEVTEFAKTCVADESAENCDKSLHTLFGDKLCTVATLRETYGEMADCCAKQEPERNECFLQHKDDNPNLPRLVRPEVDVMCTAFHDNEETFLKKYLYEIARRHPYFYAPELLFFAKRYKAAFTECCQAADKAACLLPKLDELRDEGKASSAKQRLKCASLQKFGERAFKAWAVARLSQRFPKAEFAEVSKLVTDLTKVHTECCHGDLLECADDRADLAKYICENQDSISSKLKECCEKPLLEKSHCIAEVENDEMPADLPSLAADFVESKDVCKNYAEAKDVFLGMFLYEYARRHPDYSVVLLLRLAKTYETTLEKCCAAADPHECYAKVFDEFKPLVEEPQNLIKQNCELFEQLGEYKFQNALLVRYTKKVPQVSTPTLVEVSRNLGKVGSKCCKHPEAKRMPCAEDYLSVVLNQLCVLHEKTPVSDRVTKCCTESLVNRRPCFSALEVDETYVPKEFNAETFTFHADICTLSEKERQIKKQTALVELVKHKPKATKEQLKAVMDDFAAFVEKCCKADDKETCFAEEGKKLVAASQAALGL

Albumin [23] = target: T1, Albumin; assay: Binding affinity to bovine serum albumin in phosphate buffer assessed as increase in emission intensity at 530-550 nm at 5 uM measured at pH 8 at albumin concentration of 12 uM by fluorescence emission spectrum analysis; assay type: ADME; details: cattle, isolated protein, pH 8, 5 µM
[24] = Toxicity in Syrian hamster infected with Leishmania infantum BCN150 promastigotes assessed as spleen lesions at 40 mg/kg/day, po for 10 days formulated with 30 to 50% v/v cyclodextrin measured under necropsy; assay type: organism-based, Mesocricetus auratus; details: in vivo, 240 h
[25] = Toxicity in Syrian hamster infected with Leishmania infantum BCN150 promastigotes assessed as liver lesions at 40 mg/kg/day, po for 10 days formulated with 30 to 50% v/v cyclodextrin measured under necropsy; assay type: organism-based, Mesocricetus auratus; details: in vivo, 240 h
[26] = Stability of the compound in phosphate buffer assessed as compound abundance at 450 nm at 5 uM measured at pH 8 by fluorescence emission spectrum analysis; assay type: physicochemical; details: read-out: Stability
Leishmania infantum [27] = assay: Anti-leishmanial activity against Leishmania infantum BCN150 promastigotes infected in Syrian hamster assessed as decrease in anti-leishmanial IgG level at 20 mg/kg/day, po for 10 days by ELISA; assay type: functional, organism-based
[28] = Toxicity in Syrian hamster infected with Leishmania infantum BCN150 promastigotes assessed as spleen weight at 20 mg/kg/day, po for 10 days (reference value: 0.182 +/- 0.036 g); assay type: organism-based, Mesocricetus auratus; details: in vivo, 240 h
Leishmania donovani [29] = assay: Antileishmanial activity against Leishmania donovani 1SR promastigotes assessed as parasite growth at IC50 concentration incubated with compound for 3 days under selective pressure and selection cycle repeated 10 times for total of 33 days and measured at 3 to 33 days of selection; assay type: functional, organism-based
[30] = Toxicity in Syrian hamster infected with Leishmania infantum BCN150 promastigotes assessed as effect on plasma creatinine level at 20 mg/kg/day, po for 10 days measured after the last treatment; assay type: organism-based, Mesocricetus auratus; details: in vivo, 240 h
[31] = Toxicity in Syrian hamster infected with Leishmania infantum BCN150 promastigotes assessed as spleen lesions at 20 mg/kg/day, po for 10 days; assay type: organism-based, Mesocricetus auratus; details: in vivo, 240 h

## COc1ccc2oc(-c3csc4ccccc34)c(O)c(=O)c2c1
Leishmania infantum [1]
  inhibition in vivo at 40 mg/kg/day: 25.9%
Albumin [2]
  Kd: > 12 µM
[3]
  degraded at 20 min, 60 µM: 50%
[4]
  concentration at 240 h: 38 nM
[5]
  concentration at 240 h: 76 nM
Leishmania infantum [6]
  Activity: 3428571.429 g⁻¹
[7]
  selectivity ratio: 17
[8]
  selectivity ratio: 33
Leishmania donovani [9]
  inhibition at 5 µM: 36%
Leishmania donovani [10]
  inhibition at 10 µM: 69%
Leishmania donovani [11]
  inhibition at 10 µM: 69%
[12]
  Activity: 5.522 g
[13]
  Activity: Non-Toxic
[14]
  Activity: Non-Toxic
[15]
  Activity: Non-Toxic
[16]
  Cmax: 4.76 µM and 1540 ng/mL
[17]
  AUC at 72 h: 16.3 µM·h and 5280 ng·h/mL
[18]
  half-life: 63.2 h
Leishmania donovani [19]
  inhibition: Active
hERG
  selectivity ratio: 50
[20]
  Activity: 5.444 g
WI-38
  Activity: Non-Toxic
[21]
  Stability: Unstable
Albumin [22]
  Activity: 50%
Albumin [23]
  Activity: 50%
[24]
  Activity: Non-Toxic
[25]
  Activity: Non-Toxic
[26]
  remaining at 5 µM: 90 to 95%

## CCCCCCCCCCCCCCCCOP(=O)([O-])OCC[N+](C)(C)C [MILTEFOSINE]
Leishmania infantum [27]
  inhibition: Active
[28]
  Activity: 0.191 g
Leishmania donovani [29]
  inhibition: inactive
[30]
  Activity: Non-Toxic
[31]
  Activity: Non-Toxic
